Converted amounts (≈) assume the structure as drawn. Where two headings read alike, the source gives them in different places.

The test system of data set [1] is Candida albicans TIMM0136. As to the kind of experiment: Antimicrobial spectrum, liquid medium dilution method. The format is cell-based. Particulars: medium YNBG, minimal concentration causing substantially complete inhibition of growth, read-out: Minimal inhibitory concentration. The method, then: (§1) The TKR459 obtained was used to determine antimicrobial spectra against various microorganisms. The minimal inhibitory concentration (µg/ml) was measured by the liquid medium dilution method as the minimal concentration causing a substantially complete inhibition of micobial growth. The sub-minimal inhibitory concentration (µg/ml) was determined as the minimal concentration causing a partial inhibition of micobial growth and shown in the parentheses of Table 2. In the table, YNBG stands for a medium comprising 0.67% of yeast nitrogen base (manufactured by Difco) and 1.0% of glucose.

Another data set concerns Candida kefyr TIMM0301. Described as above. The format is cell-based. Particulars: Kluyveromyces marxianus, medium YNBG. The method, then: as §1
Data set [2] concerns Cryptococcus neoformans TIMM0354. Described as above. Particulars: medium YNBG, minimal concentration causing substantially complete inhibition of growth, read-out: Minimal inhibitory concentration. The format is cell-based. The method, then:
as §1

The next data set concerns ICR mice. Briefly: Toxicity after intraperitoneal administration to mice. In kind it is in vivo. Particulars: dose 100 mg/kg.
A further data set is described as follows: Solubility in solvents. The format is physicochemical.

`CC1(CCC(=O)O)CCCCCCCCCCCCCC(O)C(O)C(O)C(N)C(O)O1` (stereo not drawn) [TKR459]: the MIC came out at 0.78 µg/mL (≈ 1.74 µM) in data set [1]; 0.78 µg/mL (≈ 1.74 µM) in the data set with Candida kefyr TIMM0301 (minimal concentration causing substantially complete inhibition of growth, read-out: Minimal inhibitory concentration); 0.39 µg/mL (≈ 0.871 µM) in the data set with Candida kefyr TIMM0301 (value in parentheses, minimal concentration causing partial inhibition of growth, read-out: sub-minimal inhibitory concentration); 3.13 µg/mL (≈ 6.99 µM) in data set [2]. In the data set with ICR mice, the toxic signs result was “no toxic signs”. The solubility result in the data set “Solubility in solvents” (in chloroform) is “sparingly soluble”; in “Solubility in solvents” (in hexane), “sparingly soluble”; in “Solubility in solvents” (in methanol) it was “soluble”; in “Solubility in solvents” (in water), “soluble”.

For the origin of these results see EP0955376A1, “ANTIBIOTIC TKR 459, PRODUCTION METHOD, AND MICROORGANISM” (Takara Shuzo Co, Ltd., priority 1996, dated 1998).
